Reference: US20170050966A1, “INHIBITING THE TRANSIENT RECEPTOR POTENTIAL A1 ION CHANNEL” (HYDRA BIOSCIENCES, INC., priority 2014, published 2017)
≈ marks a conversion by molar mass, not a printed value. Like-named read-outs stand apart in the source and are kept apart here.

Key:
[1] = Kinetic solubility in buffered solutions; type: physicochemical; conditions: aqueous buffer, kinetic from dmso stock, 24 hours ambient
Protocol: The solubilities of the compounds of Formula (I) were tested using the procedure outlined in Kerns, E. H., J Pharm Sci (2001) 90:1838-1858, incorporated herein by reference and described below. Data for solubility was obtained by this method for compounds of Formula (I) and included in Table 3. The chromatographic data was performed by HPLC using an Xbridge Shield RP18 column with the following column dimensions: 4.6×30 mm, 3.5 μm. The mobile phase consisted of deionized water (MPA) with trifluoroacetic acid added in at 0.1% (v/v) (MPC) and HPLC-grade acetonitrile (MPB). The mobile phase flow rate was 2.5 mL/min with the column and sampling operating at ambient temperature. UV detection was set to 280 nm.
Samples for analysis of the compounds of Formula (I) were prepared at a % v/v=1/19 (i.e., 10 μL of the stock solution into 190 μL of buffer) by spiking stock solutions of the compounds of Formula (I) into buffered solutions. Three buffered solution systems were prepared: pH 4.0 prepared from 50 mM sodium acetate in a 5% dextrose in water solution, pH 7.4 prepared from 75 mM sodium phosphate in a 1:1 ratio of sterilized water for injection to a 5% dextrose in water solution, and pH 9.0 prepared from 50 mM sodium bicarbonate in a 1:2 ratio of sterilized water for injection to a 5% dextrose in water solution. The samples were incubated on a microplate shaker at 300 rpm for 24 hours at ambient temperature. Following incubation, the samples were centrifuged for five minutes at 13 k rpm at ambient temperature. The resulting supernantant was extracted for HPLC analysis.

[2] = system: CFA-induced cold hyperalgesia model in the rat; assay: CFA-induced cold hypersensitivity, paw withdrawal latency; type: in vivo; conditions: for Pre-RX PWL / Pre-Rx PWL: before dosing
Protocol: Embodiments of the invention may be efficacious in the treatment of inflammatory pain. Compound 2 tested by the CFA-induced pain test method. […]
Briefly, the hind paw is sensitized to cold temperature (allodynic), by administering 0.1 mL of Complete Freund's Adjuvant (CFA) is administered to the right hind paw. Three days later, the time taken for the animal to lift its CFA-injected paw is recorded compared to its un-injected normal left hind paw. […] To avoid tissue damage the maximum cut-off time is 5 minutes. Animals that are allodynic (average PWL to the first three pain behaviors <150 seconds for the CFA-injected hind paw: ˜≧50% difference between the normal and CFA-injected paw) are included in the study and subsequently randomized across treatment groups. The following day, the animals are dosed under blinded conditions. Following the 1-2 hour pre-treatment time, the post-dose PWL readings are again taken. The efficacy of the drug treatment is assessed by comparing the PWL in the drug treatment animals to those animals that receive the vehicle.
Compound 4 was also tested using the methods disclosed.
In a further study, compounds of the invention were tested for efficacy at low doses for the treatment of inflammatory pain. Using the methods disclosed in above, Compound 2 was dosed at ranges of 0.1 to 1 mg/kg PO. The positive comparator TRPA1 antagonist Compound A was also tested at a dose of 150 mg/kg IP. […] Oral drug delivery was accomplished using a 20-gauge 1½″ oral gavage needle and a 5 cc syringe. Fed rats received a single oral gavage of Compound 2 at 0.03, 0.1, 0.3, or 1 mg/kg or Vehicle, 2 hours prior to testing

[3] = system: formalin model in the rat; assay: Formalin-induced pain test; type: in vivo
Protocol: Compound 2 was tested in the formalin-induced pain test reported by Dubuisson et al., Pain (1977) December; 4(2):161-74. Dubuisson et al describe a method for assessing pain and analgesia in rats and cats. Briefly, dilute formalin (50 μL of 3% formalin) is injected into the plantar surface of the hind paw of a rat. […] The initial phase (Phase I: 0-5 min) is thought to have a significant component that is dependent upon direct activation of afferent fibers by formalin and functional TRPA1 (McNamara et al., 2007). The individual responsible for counting the pain behaviors in a particular study is blinded to the treatment groups.
Investigators studied oral administration of Compound 2 at 1, 3 and 10 mg/kg on pain behaviors in the formalin model in the rat. Compound 2 was prepared as solutions in 4% DMSO, 10% Solutol HS15, 86% WFI. Animals were dosed orally with Vehicle (4% DMSO, 10% Solutol, 86% WFI), or Compound 2 at 1, 3 or 10 mg/kg one hour prior to intraplantar formalin. […] (n=8 per group) (*=p<0.05, **=p<0.01, *** p<0.001: 1-tailed T-test)
A reduction in the duration of pain behaviors was also observed with Compound 4 from 0-5 minutes post-formalin administration. Using the methods described above for the formalin assay, Compound 4 was formulated as a solution in 4% DMSO; 5% Tween-80; 20% Cremophor EL; and 71% WFI and administered by oral gavage to rats.
Using the methods described above for the formalin assay, Compound 4 was formulated as a suspension in 0.5% methylcellulose and administered by oral gavage to rats.
The persistence of the response was also studied. Compound 2 was prepared as a solution in 4% DMSO, 10% Solutol HS15, and 86% WFI. Rats were treated with 10 mg/kg of oral doses of Compound 2 or with the vehicle (PO).

CYP2D6 = CYP2D6 (Homo sapiens, UniProt P10635); assay: P450 Cyp-inhibition luminescent assay; type: biochemical
Protocol: (§1) The ability of Compound 2 to inhibit human CYP450 enzymes was evaluated. Compound 1 and Compound 2 were tested in standard P450 Cyp-inhibition luminescent assay.

CYP3A4 = CYP3A4 (Homo sapiens, UniProt P08684); assay: P450 Cyp-inhibition luminescent assay; type: biochemical
Protocol: as §1

[4] = 10 mg/kg PO, 1 Hr pre-treatment
[5] = 10 mg/kg PO, 2 Hr pre-treatment
[6] = 10 mg/kg PO, 4 Hr pre-treatment
[7] = 10 mg/kg PO, 6 Hr pre-treatment
[8] = 10 mg/kg PO, 15 Min pre-treatment
[9] = 10 mg/kg PO, 24 Hr pre-treatment
[10] = 10 mg/kg PO, 30 Min pre-treatment
[11] = 1 mpk PO, one hour prior to formalin
[12] = 3 mpk PO, one hour prior to formalin
[13] = 10 mpk PO, one hour prior to formalin
[14] = 1 mg/kg PO, suspension in 0.5% methylcellulose
[15] = 1 mpk PO, solution in DMSO/Tween-80/Cremophor EL/WFI
[16] = 1 mpk PO, suspension in 0.5% methylcellulose

Chain of CYP3A4 (P08684 whole entry): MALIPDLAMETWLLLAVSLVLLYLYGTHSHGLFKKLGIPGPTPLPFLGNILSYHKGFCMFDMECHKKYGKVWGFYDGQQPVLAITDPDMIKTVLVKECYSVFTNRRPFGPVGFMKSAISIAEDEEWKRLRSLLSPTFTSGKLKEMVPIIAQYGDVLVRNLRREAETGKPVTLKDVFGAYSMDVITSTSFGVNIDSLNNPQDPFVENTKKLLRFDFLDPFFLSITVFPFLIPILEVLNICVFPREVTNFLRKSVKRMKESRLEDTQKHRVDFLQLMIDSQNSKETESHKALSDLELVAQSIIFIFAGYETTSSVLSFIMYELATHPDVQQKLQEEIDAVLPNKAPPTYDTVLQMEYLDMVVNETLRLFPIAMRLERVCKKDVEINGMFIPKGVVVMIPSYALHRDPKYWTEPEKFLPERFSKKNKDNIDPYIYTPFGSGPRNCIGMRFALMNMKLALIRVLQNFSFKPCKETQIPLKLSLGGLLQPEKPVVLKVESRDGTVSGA
Chain of CYP2D6 (P10635 whole entry): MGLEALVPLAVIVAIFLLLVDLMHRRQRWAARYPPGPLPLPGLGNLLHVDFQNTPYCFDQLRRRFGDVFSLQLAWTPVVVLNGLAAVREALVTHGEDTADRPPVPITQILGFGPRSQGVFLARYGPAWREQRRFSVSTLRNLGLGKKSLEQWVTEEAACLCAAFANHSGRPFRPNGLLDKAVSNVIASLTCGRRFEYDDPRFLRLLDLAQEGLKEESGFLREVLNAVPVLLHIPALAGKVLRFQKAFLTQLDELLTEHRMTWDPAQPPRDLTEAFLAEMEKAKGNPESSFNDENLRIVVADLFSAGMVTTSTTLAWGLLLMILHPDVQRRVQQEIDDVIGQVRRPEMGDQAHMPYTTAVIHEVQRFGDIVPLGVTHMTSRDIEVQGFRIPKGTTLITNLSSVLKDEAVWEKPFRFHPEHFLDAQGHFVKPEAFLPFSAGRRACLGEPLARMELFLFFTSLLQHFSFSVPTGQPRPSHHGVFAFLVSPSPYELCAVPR

Work on `C[C@@H](C(=O)Nc1ccnc(-c2cnc(N3CCC[C@H]3C(F)(F)F)nc2)n1)n1cnc2c1c(=O)n(C)c(=O)n2C` [Compound 2, (S)-2-(1,3-dimethyl-2,6-dioxo-2,3-dihydro-1H-purin-7(6H)-yl)-N-(2′-((S)-2-(trifluoromethyl)pyrrolidin-1-yl)-[2,5′-bipyrimidin]-4-yl)propanamide] yielded a solubility kinetic at 24 h ([1]; sodium acetate buffer, pH 4.0, 50 mM sodium acetate, read-out: pH 4.0 solubility) of 85 µg/mL (≈ 156 µM), a solubility kinetic at 24 h ([1]; sodium bicarbonate buffer, pH 9.0, 50 mM sodium bicarbonate, read-out: pH 9.0 solubility) of 69 µg/mL (≈ 127 µM) and a solubility kinetic at 24 h ([1]; sodium phosphate buffer, pH 7.4, 75 mM sodium phosphate, read-out: pH 7.4 solubility) of 71 µg/mL (≈ 130 µM). The “reversal of CFA-induced cold hypersensitivity” value ([2]; 0.03 mg/kg PO) was “did not exert a statistically significant effect”, the “PWL Change” value ([2]; 0.03 mpk PO, 2 hours prior to testing) was 14.8 s and the “reversal of CFA-induced cold hypersensitivity” value ([2]; 0.1, 0.3, and 1 mg/kg PO) was “significant reversal of CFA-induced cold hypersensitivity”. The “PWL Change” value ([2]; 0.1 mpk PO, 2 hours prior to testing) was 43.1 s, the “Post RX PWL” value ([2]; 0.3 mpk PO) was 197.7 s and the “Pre-RX PWL” value ([2]; 0.3 mpk PO group) was 104.0 s. For the same compound, the “PWL Change” value ([2]; 0.3 mpk PO, 2 hours prior to testing) was 74.1 s, the “Post RX PWL” value ([2]; 1 mpk PO) was 243.0 s and the “Pre-RX PWL” value ([2]; 1 mpk PO group) was 103.7 s. For the same compound, the “PWL Change” value ([2]; 1 mpk PO, 2 hours prior to testing) was 104.8 s, the “Post RX PWL” value ([2]; 3 mpk PO) was 249.6 s and the “Pre-RX PWL” value ([2]; 3 mpk PO group) was 103.9 s. The “Post RX PWL” value ([2]; 10 mpk PO) was 237.3 s, the “Pre-RX PWL” value ([2]; 10 mpk PO group) was 104.0 s and the “effect on cold hypersensitivity” value ([2]; oral doses of 0.3 to 10 mg/kg) was “attenuated cold hypersensitivity”. The “reduction of pain behaviors from 0-5 minutes” value ([3]; 1 mg/kg PO, vs vehicle, did not reach statistical significance) was roughly 14%, the “decrease in the duration of pain behaviors from 0-2 minutes” value ([3]; 1 mg/kg PO, vs vehicle, not statistically significant) was roughly 14% and the “decrease in formalin-induced pain behaviors from 0-2 minutes” value ([3]; 3 mg/kg PO, vs vehicle) was roughly 72%. The “reduction of duration of pain behaviors from 0-5 minutes” value ([3]; 3 mg/kg PO, vs vehicle) was roughly 46%, the “Duration 0-2 min” value [3, 4] was 14.50 s and the “Duration 0-5 min” value [3, 4] was 146.14 s. The “Duration 0-2 min” value [3, 5] was 12.00 s, the “Duration 0-5 min” value [3, 5] was 118.10 s and the “Duration 0-2 min” value [3, 6] was 19.00 s. The “Duration 0-5 min” value [3, 6] was 135.84 s, the “Duration 0-2 min” value [3, 7] was 22.75 s and the “Duration 0-5 min” value [3, 7] was 156.61 s. For the same compound, the “Duration 0-2 min” value [3, 8] was 82.50 s, the “Duration 0-5 min” value [3, 8] was 185.43 s and the “Duration 0-2 min” value [3, 9] was 96.63 s. The “Duration 0-5 min” value [3, 9] was 197.15 s, the “Duration 0-2 min” value [3, 10] was 62.50 s and the “Duration 0-5 min” value [3, 10] was 181.40 s. For the same compound, the “decrease in the duration of formalin-induced pain behaviors 0-2 minutes” value ([3]; 10 mg/kg PO, 15 minute to 6 hour pre-treatment, vs vehicle) was 30-87%, the “duration of formalin-mediated pain behaviors” value ([3]; 10 mg/kg PO, 30 minutes to 6 hours prior to formalin injection) was “significantly decreased the duration of formalin-mediated pain behaviors” and the “decrease in formalin-induced pain behaviors from 0-2 minutes” value ([3]; 10 mg/kg PO, vs vehicle) was roughly 89%. The “reduction of duration of pain behaviors from 0-5 minutes” value ([3]; 10 mg/kg PO, vs vehicle) was roughly 60%, the “Duration 0-2 min” value [3, 11] was 73.00 s and the “Duration 0-5 min” value [3, 11] was 157.38 s. For the same compound, the “Duration 0-2 min” value [3, 12] was 23.25 s, the “Duration 0-5 min” value [3, 12] was 99.00 s and the “Duration 0-2 min” value [3, 13] was 9.25 s. The “Duration 0-5 min” value [3, 13] was 73.50 s, the “CYP 2D6: % Inhibition” value (CYP2D6) was 6.3% and the “CYP 3A4: % Inhibition” value (CYP3A4) was 2.7%.
For `C[C@@H](C(=O)Nc1ccnc(-c2cnc(N3CCC[C@@H]3C(F)(F)F)nc2)n1)n1cnc2c1c(=O)n(C)c(=O)n2C` [Compound 4, (S)-2-(1,3-dimethyl-2,6-dioxo-2,3-dihydro-1H-purin-7(6H)-yl)-N-(2′-((R)-2-(trifluoromethyl)pyrrolidin-1-yl)-[2,5′-bipyrimidin]-4-yl)propanamide], the “Pre-Rx PWL” value ([2]; 1 mg/kg PO group, suspension in 0.5% methylcellulose) was 101.7 s, the “PWL Change” value [2, 14] was 148.6 s and the “Post-Rx PWL” value [2, 14] was 250.3 s. For the same compound, the “Pre-Rx PWL” value ([2]; 3 mg/kg PO group, suspension) was 101.1 s, the “PWL Change” value ([2]; 3 mg/kg PO, suspension) was 140.9 s and the “Post-Rx PWL” value ([2]; 3 mg/kg PO, suspension) was 242.1 s. For the same compound, the “Pre-Rx PWL” value ([2]; 10 mg/kg PO group, suspension) was 101.5 s, the “PWL Change” value ([2]; 10 mg/kg PO, suspension) was 132.6 s and the “Post-Rx PWL” value ([2]; 10 mg/kg PO, suspension) was 234.1 s. The “Duration 0-2 min” value [3, 15] was 76.13 s, the “Duration 0-5 min” value [3, 15] was 197.88 s and the “Duration 0-2 min” value [3, 16] was 80.38 s. For the same compound, the “Duration 0-5 min” value [3, 16] was 186.25 s, the “Duration 0-2 min” value ([3]; 3 mpk PO, solution) was 45.25 s and the “Duration 0-5 min” value ([3]; 3 mpk PO, solution) was 175.88 s. The “Duration 0-2 min” value ([3]; 3 mpk PO, suspension) was 51.13 s, the “Duration 0-5 min” value ([3]; 3 mpk PO, suspension) was 163.25 s and the “Duration 0-2 min” value ([3]; 10 mpk PO, solution) was 47.13 s. For the same compound, the “Duration 0-5 min” value ([3]; 10 mpk PO, solution) was 191.00 s, the “Duration 0-2 min” value ([3]; 10 mpk PO, suspension) was 38.13 s and the “Duration 0-5 min” value ([3]; 10 mpk PO, suspension) was 144.25 s.
